molecular target: T1, GSK-3β (AA 1-420) (Homo sapiens, UniProt P49841); experiment: Ki determination for the inhibition of GSK-3 (coupled enzyme system); type: biochemical; settings: 20 μM ATP, 300 μM peptide, 20 nM GSK-3β, 30° C
T1 construct: GSK-3β (AA 1-420)
Experimental: Compounds were screened for their ability to inhibit GSK-3β (AA 1-420) activity using a standard coupled enzyme system (Fox et al. (1998) Protein Sci. 7, 2249). Reactions were carried out in a solution containing 100 mM HEPES (pH 7.5), 10 mM MgCl2, 25 mM NaCl, 300 μM NADH, 1 mM DTT and 1.5% DMSO. Final substrate concentrations in the assay were 20 μM ATP (Sigma Chemicals, St Louis, Mo.) and 300 μM peptide (HSSPHQS(PO3H2)EDEEE, American Peptide, Sunnyvale, Calif.). Reactions were carried out at 30° C. and 20 nM GSK-3β. Final concentrations of the components of the coupled enzyme system were 2.5 mM phosphoenolpyruvate, 300 μM NADH, 30 μg/ml pyruvate kinase and 10 μg/ml lactate dehydrogenase.
An assay stock buffer solution was prepared containing all of the reagents listed above with the exception of ATP and the test compound of interest. The assay stock buffer solution (175 μl) was incubated in a 96 well plate with 5 μl of the test compound of interest at final concentrations spanning 0.002 μM to 30 μM at 30° C. for 10 min. Typically, a 12 point titration was conducted by preparing serial dilutions (from 10 mM compound stocks) with DMSO of the test compounds in daughter plates. The reaction was initiated by the addition of 20 μl of ATP (final concentration 20 μM). Rates of reaction were obtained using a Molecular Devices Spectramax plate reader (Sunnyvale, Calif.) over 10 min at 30° C. The Ki values were determined from the rate data as a function of inhibitor concentration.

T1 sequence (P49841 whole entry, the tested form may be a part): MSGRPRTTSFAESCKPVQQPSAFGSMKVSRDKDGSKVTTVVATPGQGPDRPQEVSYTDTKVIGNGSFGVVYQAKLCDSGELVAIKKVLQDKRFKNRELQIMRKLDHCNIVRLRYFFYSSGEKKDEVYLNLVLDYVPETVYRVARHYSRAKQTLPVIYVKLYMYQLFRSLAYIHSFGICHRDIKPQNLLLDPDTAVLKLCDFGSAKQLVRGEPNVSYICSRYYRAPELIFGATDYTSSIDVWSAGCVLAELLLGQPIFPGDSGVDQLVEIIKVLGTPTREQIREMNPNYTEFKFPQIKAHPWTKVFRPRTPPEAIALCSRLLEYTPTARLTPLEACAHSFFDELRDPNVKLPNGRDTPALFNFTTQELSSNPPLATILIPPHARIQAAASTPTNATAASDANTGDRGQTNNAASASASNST

Structure (SMILES) | Ki [µM]
Fc1cccc2c(Nc3nc(-c4ccccc4Cl)nc4ccccc34)n[nH]c12 [II-74, [2-(2-Chloro-phenyl)-quinazolin-4-yl]-(7-fluoro-1H-indazol-3-yl)-amine] | < 0.1
Clc1ccccc1-c1nc2c(c(Nc3n[nH]c4ccccc34)n1)CCCCC2 [II-2, [2-(2-Chloro-phenyl)-6,7,8,9-tetrahydro-5H-cycloheptapyrimidin-4-yl]-(1H-indazol-3-yl)-amine] | < 0.1
FC(F)(F)c1ccccc1-c1nc(Nc2n[nH]c3c2CCCC3)c2ccccc2n1 [II-97, (4,5,6,7-Tetrahydro-1H-indazol-3-yl)-[2-(2-trifluoromethyl-phenyl)-quinazolin-4-yl]-amine] | 0.1 to 1
FC(F)(F)c1ccccc1-c1nc(Nc2cc(-c3cccs3)[nH]n2)c2ccccc2n1 [II-46, [5-(Thiophen-2-yl)-2H-pyrazol-3-yl]-[2-(2-trifluoromethylphenyl)-quinazolin-4-yl]-amine] | < 0.1
Fc1cccc2c(Nc3nc(-c4ccccc4C(F)(F)F)nc4c3CCCCC4)n[nH]c12 [II-14, (7-Fluoro-1H-indazol-3-yl)-[2-(2-trifluoromethyl-phenyl)-6,7,8,9-tetrahydro-5H-cycloheptapyrimidin-4-yl]-amine] | < 0.1
O=[N+]([O-])c1ccc(-c2nc(Nc3n[nH]c4c(F)cc(F)cc34)c3ccccc3n2)c(Cl)c1 [II-95, [2-(2-Chloro-4-nitro-phenyl)-quinazolin-4-yl]-(5,7-difluoro-1H-indazol-3-yl)-amine] | < 0.1
Fc1cc(F)c2[nH]nc(Nc3nc(-c4ccccc4C(F)(F)F)nc4c3CCC4)c2c1 [II-115, (5,7-Difluoro-1H-indazol-3-yl)-[2-(2-trifluoromethyl-phenyl)-6,7-dihydro-5H-cyclopentapyrimidin-4-yl]-amine] | < 0.1
Fc1cc(F)c2[nH]nc(Nc3nc(-c4ccccc4C(F)(F)F)nc4c3CCCCC4)c2c1 [II-11, (5,7-difluoro-1H-indazol-3-yl)-[2-(2-trifluoromethyl-phenyl)-6,7,8,9-tetrahydro-5H-cycloheptapyrimidin-4-yl]-amine] | < 0.1
Fc1cc(F)c2[nH]nc(Nc3nc(-c4ccccc4C(F)(F)F)nc4ncccc34)c2c1 [II-109, (5,7-Difluoro-1H-indazol-3-yl)-[2-(2-trifluoromethyl-phenyl)-pyrido[2,3-d]pyrimidin-4-yl]-amine] | < 0.1
FC(F)(F)c1ccccc1-c1nc(Nc2n[nH]c3cccc(C(F)(F)F)c23)c2ccccc2n1 [II-65, (4-Trifluoromethyl-1H-indazol-3-yl)-[2-(2-trifluoromethyl-phenyl)-guinazolin-4-yl]-amine] | 1 to 20
Fc1cccc2c(Nc3nc(-c4ccccc4C(F)(F)F)nc4c3CCC4)n[nH]c12 [II-114, (7-Fluoro-1H-indazol-3-yl)-[2-(2-trifluoromethyl-phenyl)-6,7-dihydro-5H-cyclopentapyrimidin-4-yl]-amine] | < 0.1
Fc1ccc2[nH]nc(Nc3nc(-c4ccccc4C(F)(F)F)nc4c3CNCC4)c2c1 [II-16, (5-Fluoro-1H-indazol-3-yl)-[2-(2-trifluoromethyl-phenyl)-5,6,7,8-tetrahydro-pyrido[4,3-d]pyrimidin-4-yl]-amine] | < 0.1
Fc1ccc(-c2nc(Nc3n[nH]c4c(F)cc(F)cc34)c3ccccc3n2)c(C(F)(F)F)c1 [II-84, (5,7-Difluoro-1H-indazol-3-yl)-[2-(4-fluoro-2-trifluoromethyl-phenyl)-quinazolin-4-yl]-amine] | < 0.1
Cc1nc(-c2ccccc2Cl)nc(Nc2n[nH]c3ccccc23)c1C [II-26, [2-(2-Chlorophenyl)-5,6-dimethyl-pyrimidin-4-yl]-(1H-indazol-3-yl)-amine] | < 0.1
Fc1cccc2[nH]nc(Nc3nc(-c4ccccc4C(F)(F)F)nc4ccccc34)c12 [II-89, (4-Fluoro-1H-indazol-3-yl)-[2-(2-trifluoromethyl-phenyl)-quinazolin-4-yl]-amine] | 1 to 20
Fc1cc(F)c2[nH]nc(Nc3nc(-c4cc(C(F)(F)F)ccc4Cl)nc4ccccc34)c2c1 [II-88, [2-(2-Chloro-5-trifluoromethyl-phenyl)-quinazolin-4-yl]-(5,7-Difluoro-1H-indazol-3-yl)-amine] | < 0.1
FC(F)(F)c1ccccc1-c1nc2c(c(Nc3n[nH]c4ccccc34)n1)CCC2 [II-113, (1H-Indazol-3-yl)-[2-(2-trifluoromethyl-phenyl)-6,7-dihydro-5H-cyclopentapyrimidin-4-yl]-amine] | < 0.1
Fc1cc(F)c2[nH]nc(Nc3nc(-c4ccccc4Br)nc4ccccc34)c2c1 [II-85, [2-(2-Bromo-phenyl)-quinazolin-4-yl]-(5,7-difluoro-1H-indazol-3-yl)-amine] | < 0.1
Cc1nc(-c2ccccc2Cl)nc(Nc2n[nH]c3c(F)cc(F)cc23)c1C [II-29, [2-(2-Chlorophenyl)-5,6-dimethyl-pyrimidin-4-yl]-(5,7-difluoro-1H-indazol-3-yl)-amine] | < 0.1
Fc1cc(F)c2[nH]nc(Nc3nc(-c4ccccc4C(F)(F)F)nc4c3CCCC4)c2c1 [II-9, (5,7-Difluoro-1H-indazol-3-yl)-[2-(2-trifluoromethyl-phenyl)-5,6,7,8-tetrahydroquinazolin-4-yl]-amine] | < 0.1
Cc1cc(Nc2nc(-c3cccc4ccccc34)nc3ccccc23)n[nH]1 [II-208, (5-Methyl-2H-pyrazol-3-yl)-[2-(2-naphthyl-1-yl)-quinazolin-4-yl]-amine] | < 0.1
Fc1ccc2[nH]nc(Nc3nc(-c4ccccc4C(F)(F)F)nc4c3CCNC4)c2c1 [II-3, (5-Fluoro-1H-indazol-3-yl)-[2-(2-trifluoromethyl-phenyl)-5,6,7,8-tetrahydro-pyrido[3,4-d]pyrimidin-4-yl]-amine] | < 0.1

Continued, values first:

Ki [µM] | Structure (SMILES)
< 0.1 | Cc1cc(Nc2nc(-c3ccsc3)nc3ccccc23)[nH]n1 [III-62, (5-Methyl-2H-pyrazol-3-yl)-(2-thiophen-3-yl-quinazolin-4-yl)-amine]
0.1 to 1 | Fc1ccc2[nH]nc(Nc3nc(-c4ccccc4)nc4c3CNCC4)c2c1 [IV-36, (5-Fluoro-1H-indazol-3-yl)-(2-phenyl-5,6,7,8-tetrahydro-pyrido[4,3-d]pyrimidin-4-yl)-amine]
1 to 20 | O=c1cc2[nH]nc(Nc3nc(-c4ccccc4)nc4ccccc34)c2nn1-c1ccc(Oc2ccccc2)cc1 [III-139, [6-Oxo-5-(4-Phenoxy-phenyl)-5,6-dihydro-1H-pyrazolo[4,3-c]pyridazin-3-yl]-(2-phenyl-quinazolin-4-yl)-amine]
0.1 to 1 | O=c1cc2[nH]nc(Nc3nc(-c4ccccc4)nc4ccccc34)c2nn1-c1ccccc1 [III-135, (6-Oxo-5-phenyl-5,6-dihydro-1H-pyrazolo[4,3-c]pyridazin-3-yl)-(2-phenyl-quinazolin-4-yl)-amine]
0.1 to 1 | O=C(NC1CC1)c1cc(Nc2nc(-c3ccccc3)nc3ccccc23)[nH]n1 [III-90, (5-Cyclopropylcarbamoyl-2H-pyrazol-3-yl)-(2-phenyl-quinazolin-4-yl)-amine]
0.1 to 1 | CCCNC(=O)c1cc(Nc2nc(-c3ccccc3)nc3ccccc23)[nH]n1 [III-88, (2-Phenyl-quinazolin-4-yl)-(5-propylcarbamoyl-2H-pyrazol-3-yl)-amine]
1 to 20 | CC(C)NC(=O)c1cc(Nc2nc(-c3ccccc3)nc3ccccc23)[nH]n1 [III-81]
1 to 20 | CN1CCN(C(=O)c2cc(Nc3nc(-c4ccccc4)nc4ccccc34)[nH]n2)CC1 [III-98, [5-(1-Methylpiperazine-4-carbonyl)-2H-pyrazol-3-yl]-(2-phenyl-quinazolin-4-yl)-amine]
1 to 20 | CC1CCCCN1c1nc(Nc2n[nH]c3ccccc23)c2ccccc2n1 (centres unmarked) [III-146]
0.1 to 1 | COc1cccc(-n2nc3c(Nc4nc(-c5ccccc5)nc5ccccc45)n[nH]c3cc2=O)c1 [III-134, [5-(3-Methoxy-phenyl)-6-oxo-5,6-dihydro-1H-pyrazolo[4,3-c]pyridazin-3-yl]-(2-phenyl-quinazolin-4-yl)-amine]
1 to 20 | CSc1n[nH]c(Nc2nc(-c3ccccc3C(F)(F)F)nc3ccccc23)n1 [IX-156, (5-Methylsulfanyl-2H-[1,2,4]triazol-3-yl)-[2-(2-trifluoromethylphenyl)-quinazolin-4-yl]-amine]
1 to 20 | NC(=O)c1cc(Nc2nc(-c3ccccc3)nc3ccccc23)[nH]n1 [III-100, (5-Carbamoyl-2H-pyrazol-3-yl)-(2-phenyl-quinazolin-4-yl)-amine]
1 to 20 | O=C(NCCO)c1cc(Nc2nc(-c3ccccc3)nc3ccccc23)[nH]n1 [III-99]
1 to 20 | COCCNC(=O)c1cc(Nc2nc(-c3ccccc3)nc3ccccc23)[nH]n1 [III-83]
1 to 20 | O=C(c1cc(Nc2nc(-c3ccccc3)nc3ccccc23)[nH]n1)N1CCOCC1 [III-97, [5-(Morpholine-4-carbonyl)-2H-pyrazol-3-yl]-(2-phenyl-quinazolin-4-yl)-amine]
0.1 to 1 | O=c1cc2[nH]nc(Nc3nc(-c4ccccc4)nc4ccccc34)c2nn1-c1ccc(Cl)cc1 [III-140, [5-(4-Chloro-phenyl)-6-oxo-5,6-dihydro-1H-pyrazolo[4,3-c]pyridazin-3-yl]-(2-phenyl-quinazolin-4-yl)-amine]
